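1) Cells in 96-well plates. 2) Compound, 48 h, 5 concentrations. 3) Linear interpolation between surrounding doses. 4) Unreached endpoint = highest concentration. GI50 = concentration required for 50% inhibition of growth.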 Active and inactive are the calls of the source. Rule as the data show it: active = GI50 up to about 1.1 µM and inactive = higher.
How the values were obtained:
Experiment in all cases: inhibition of tumour cell growth, NCI panel, 48 h
[1] = test system: UACC-62
[2] = test system: SNB-75
[3] = test system: SF-268
[4] = test system: SN12C
[5] = test system: M19-MEL
[6] = test system: DMS-273
[7] = test system: OVCAR-4
[8] = test system: SK-MEL-28
[9] = test system: IGROV-1
[10] = test system: UACC-257
[11] = test system: HL-60
[12] = test system: HCT-15
[13] = test system: LOX IMVI
[14] = test system: SK-MEL-2
[15] = test system: HCT-116
[16] = test system: NCI-H23
[17] = test system: EKVX
[18] = test system: OVCAR-5
[19] = test system: KM12
[20] = test system: TK-10
[21] = test system: RPMI-8226
[22] = test system: ACHN
[23] = test system: NCI-H460
[24] = test system: A549
[25] = test system: SW-620
[26] = test system: HT-29
[27] = test system: A498
[28] = test system: MOLT-4
[29] = test system: HOP-18
[30] = test system: COLO 205
[31] = test system: SF-539
[32] = test system: LXFL 529
[33] = test system: OVCAR-3
[34] = test system: M14
[35] = test system: NCI-H522
[36] = test system: Malme-3M
[37] = test system: HOP-92
[38] = test system: KM-20L2
[39] = test system: SK-MEL-5
[40] = test system: UO-31
[41] = test system: K562
[42] = test system: HCC 2998
[43] = test system: 786-0
[44] = test system: NCI-H226
[45] = test system: XF498
[46] = test system: U-251
[47] = test system: CCRF-CEM
[48] = test system: SNB-78
[49] = test system: SNB-19
[50] = test system: DMS-114
[51] = test system: OVCAR-8
[52] = test system: SK-OV-3
[53] = test system: HOP-62
[54] = test system: SF-295
[55] = test system: CAKI-1
[56] = test system: DLD-1

In the case of `Cc1c2cc[n+](C)cc2c(C)c2c1[nH]c1ccc(OC(C)C)cc12`, the GI50 [1] is reported as 2.51 µM (inactive), the GI50 [2] is reported as 0.239 µM (active) and the GI50 [3] is reported as 0.474 µM (active). The GI50 [4] was 0.392 µM (active), the GI50 [5] was 1.64 µM (inactive) and the GI50 [6] was 2.19 µM (inactive). The GI50 [7] was 2.16 µM (inactive), the GI50 [8] was 2.97 µM (inactive) and the GI50 [9] was 1.9 µM (inactive). The GI50 [10] was 2.37 µM (inactive), the GI50 [11] was 2.56 µM (inactive) and the GI50 [12] was greater than 100 µM. For the same compound, the GI50 [13] was 4.19 µM (inactive), the GI50 [14] was 1.66 µM (inactive) and the GI50 [15] was 2.91 µM (inactive). For the same compound, the GI50 [16] was 1.41 µM (inactive), the GI50 [17] was 6.62 µM (inactive) and the GI50 [18] was 10.9 µM (inactive). For the same compound, the GI50 [19] was 1.62 µM (inactive), the GI50 [20] was 19.8 µM (inactive) and the GI50 [21] was 6.1 µM (inactive). The GI50 [22] was 11.6 µM (inactive), the GI50 [23] was 2.15 µM (inactive) and the GI50 [24] was 2.01 µM (inactive). For the same compound, the GI50 [25] was 2.49 µM (inactive), the GI50 [26] was 3.06 µM (inactive) and the GI50 [27] was 6.35 µM (inactive). The GI50 [28] was 3.16 µM (inactive), the GI50 [29] was 2.54 µM (inactive) and the GI50 [30] was 1.28 µM (inactive). The GI50 [31] was 1.39 µM (inactive), the GI50 [32] was 0.515 µM (active) and the GI50 [33] was 1.9 µM (inactive). For the same compound, the GI50 [34] was 6.34 µM (inactive), the GI50 [35] was 1.47 µM (inactive) and the GI50 [36] was 1.34 µM (inactive). For the same compound, the GI50 [37] was 2.6 µM (inactive), the GI50 [38] was 3.58 µM (inactive) and the GI50 [39] was 1.4 µM (inactive). For the same compound, the GI50 [40] was 44.1 µM (inactive).

`c1ccc(C2=NN(c3ccccc3)C3(S2)SC(c2ccccc2)(c2ccccc2)c2ccccc23)cc1` (stereo not given) was tested, and the GI50 [1] was > 100 µM (inactive), the GI50 [41] was > 100 µM (inactive) and the GI50 [42] was > 100 µM (inactive). The GI50 [2] was > 100 µM (inactive), the GI50 [3] was > 100 µM (inactive) and the GI50 [4] was > 100 µM (inactive). For the same compound, the GI50 [43] was > 100 µM (inactive), the GI50 [5] was > 100 µM (inactive) and the GI50 [6] was > 100 µM (inactive). For the same compound, the GI50 [7] was > 100 µM (inactive), the GI50 [8] was > 100 µM (inactive) and the GI50 [9] was > 100 µM (inactive). For the same compound, the GI50 [10] was > 100 µM (inactive), the GI50 [11] was 0.804 µM (active) and the GI50 [44] was > 100 µM (inactive). For the same compound, the GI50 [12] was greater than 100 µM, the GI50 [13] was > 100 µM (inactive) and the GI50 [14] was > 100 µM (inactive). The GI50 [15] was > 100 µM (inactive), the GI50 [16] was > 100 µM (inactive) and the GI50 [17] was > 100 µM (inactive). The GI50 [45] was > 100 µM (inactive), the GI50 [18] was > 100 µM (inactive) and the GI50 [46] was > 100 µM (inactive). The GI50 [47] was > 100 µM (inactive), the GI50 [19] was > 100 µM (inactive) and the GI50 [20] was > 100 µM (inactive). For the same compound, the GI50 [21] was > 100 µM (inactive), the GI50 [22] was > 100 µM (inactive) and the GI50 [23] was > 100 µM (inactive). The GI50 [24] was > 100 µM (inactive), the GI50 [25] was > 100 µM (inactive) and the GI50 [48] was > 100 µM (inactive). The GI50 [26] was > 100 µM (inactive), the GI50 [49] was > 100 µM (inactive) and the GI50 [50] was > 100 µM (inactive). The GI50 [27] was > 100 µM (inactive), the GI50 [28] was > 100 µM (inactive) and the GI50 [51] was > 100 µM (inactive). The GI50 [30] was > 100 µM (inactive), the GI50 [31] was > 100 µM (inactive) and the GI50 [52] was > 100 µM (inactive). For the same compound, the GI50 [32] was > 100 µM (inactive), the GI50 [33] was > 100 µM (inactive) and the GI50 [34] was > 100 µM (inactive). For the same compound, the GI50 [53] was > 100 µM (inactive), the GI50 [54] was > 100 µM (inactive) and the GI50 [35] was > 100 µM (inactive). For the same compound, the GI50 [55] was > 100 µM (inactive), the GI50 [36] was > 100 µM (inactive) and the GI50 [56] was > 100 µM (inactive). For the same compound, the GI50 [37] was > 100 µM (inactive), the GI50 [38] was > 100 µM (inactive) and the GI50 [39] was > 100 µM (inactive). The GI50 [40] was > 100 µM (inactive).

Reference: ChEMBL document CHEMBL1201862, “PubChem BioAssay data set” (2004)
